# Measured values reported in publication PMC10027881 (Scientific Reports, 2023).
# Where two headings read alike, the source gives them in different places.
# Assays:
# GST [1] = test: GST expression by western blotting; format: cell-based, human
# Description: (§1) Caco2 and hEL cells were cultured in a 100 mm^2 cell culture dish with MEM containing 10% FBS at 37 °C in a humidified atmosphere of 5% CO2. To determine the effects of the treatment conditions, hEL cells were incubated with various concentrations of B(a)P and G-Rg3 in MEM for 48 h. The cells were subjected to further analysis or harvested to prepare cell-free extracts.
# (§2) hEL cells were washed using ice-cold PBS and then lysed using radioimmunoprecipitation assay buffer containing a protease inhibitor and phosphatase inhibitors. After protein quantification using a total protein assay kit, 30 µg of protein from each sample was separated by 12% SDS‒PAGE and transferred electrophoretically onto the PVDF membrane. The membranes were blocked using 5% skim milk and then incubated with primary antibodies overnight at 4 °C. After incubation with horseradish peroxidase-conjugated secondary antibody, enhanced chemiluminescent reagent was added to visualize the binding signals. The intensity of each protein band was quantified using ImageJ software.
# GST [2] = test: GST activity assay kit; format: cell-based, human
# Description: hEL cells were seeded in 96-well plates at a density of 1 × 10^4 cells per well and treated with 10 µM B(a)P in the absence or presence of 10 µM G-Rg3 for 48 h. GST activity was measured using a commercial GST activity assay kit according to the manufacturer’s protocols. The relative activation of GST was measured by using a microplate reader for absorbance at 450 nm.
# Nrf2 = Nrf2 expression by western blotting; format: cell-based, human
# Description: as §1, §2
# Caco-2 cells = details: cited from earlier work
# [3] = Side effects in the model mice: body weight, plasma ALT and Cr; format: in vivo, A/J mice; details: G-Rg3 treatment groups vs control group
# Description: (§3) All experiments were performed in accordance with relevant guidelines and regulations, and the study was conducted in accordance with Animal Research: Reporting of in vivo Experiments (ARRIVE) guidelines. […] One week later, the mice were randomly divided into control and different treatment groups with 15 mice per group, and treatment was performed once every day via oral gavage. Following 20 weeks of treatment, the animals were sacrificed by CO2 asphyxiation. The lungs were collected and fixed for 24 h. Quantification of the surface tumor count and individual tumor size on each lung was performed under a dissecting microscope. The tumor volume (V) estimation was calculated using the following expression: V (mm^3) = 4/3πr^3, where r is the tumor diameter. The net sum of all the volumes of tumors in a mouse lung was the total tumor volume, with the mean total tumor volume per group represented the tumor load. Whole blood and intestine samples were collected and stored at − 80 °C for UPLC‒MS/MS assays. Serum was collected and analyzed for alanine transaminase (ALT) and serum creatinine (Cr) levels by an automatic biochemical analyzer to evaluate liver and kidney function.
# [4] = system: lung tumors induced by B(a)P in A/J mice; test: B(a)P-induced lung tumorigenesis in A/J mice, tumor load; format: in vivo; details: G-Rg3 study, 20-weeks treatment; control 1.63 ± 0.40
# Description: The mice were sacrificed by CO2 asphyxiation after the 20th week of red ginseng treatment.
# as §3
# [5] = UPLC-MS/MS levels of ginsenosides in blood/plasma and intestine after 20-weeks treatment; format: in vivo, A/J mice; details: for concentration at 20 weeks: A/J, mouse
# Description: All experiments were approved by the laboratory animal ethics committee of Tongji Medical College, Huazhong University of Science and Technology (approval no. 2019; file no. 4587TH). All experiments were performed in accordance with relevant guidelines and regulations, and the study was conducted in accordance with Animal Research: Reporting of in vivo Experiments (ARRIVE) guidelines. Eight-week-old A/J mice were given an initial intraperitoneal injection of B(a)P in tricaprylin (100 mg/kg in 0.2 mL). One week later, the mice were randomly divided into control and different treatment groups with 15 mice per group, and treatment was performed once every day via oral gavage. Following 20 weeks of treatment, the animals were sacrificed by CO2 asphyxiation. The lungs were collected and fixed for 24 h. Quantification of the surface tumor count and individual tumor size on each lung was performed under a dissecting microscope. The tumor volume (V) estimation was calculated using the following expression: V (mm^3) = 4/3πr^3, where r is the tumor diameter. The net sum of all the volumes of tumors in a mouse lung was the total tumor volume, with the mean total tumor volume per group represented the tumor load. Whole blood and intestine samples were collected and stored at − 80 °C for UPLC‒MS/MS assays. Serum was collected and analyzed for alanine transaminase (ALT) and serum creatinine (Cr) levels by an automatic biochemical analyzer to evaluate liver and kidney function.
# As described above, the collected samples were retrieved from cold storage, thawed, weighed, and placed in a test tube. To this, 0.5 µM phloridzin (internal standard) in 0.8 mL of methanol solution was added. Then, the tissue was homogenized using a Tissue-Tearor and the homogenate was subsequently transferred into a 1.5 mL microcentrifuge tube. The mixture was centrifuged for 15 min at 15,500 rpm. Following the removal of […] of the supernatant, nitrogen–based drying was performed. Two hundred microliters of methanol was used for reconstitution. Blood was collected and processed on the same lines and used as a reference for all measurements.
# Caco-2 monolayer = test: Transcellular transport across the Caco-2 monolayer; format: in vitro ADME; details: for Pb-a compared with Pa-b: no verapamil
# Description: This assay was performed in accordance with an earlier study.
# The cells were subjected to washing using HBSS and preincubation at 37 °C following 3 weeks of culture. […] Collection of 100 µL medium was performed at the indicated times (0, 15, 30, 45, 60, 90, and 120 min), and 100 µL HBSS was added to replenish this volume. These samples were stored at […] until UPLC‒MS/MS assays. The expression Papp = dQ/(dT × A × C0) was utilized to quantify the apparent unidirectional permeability for both the apical and basolateral sides and vice versa (Pa-b and Pb-a, respectively); dQ/dT represents the concentration change, A (0.6 cm^2) represents the monolayer surface area, and C0 represents the initial donor concentration. The efflux ratio was calculated as Pb-a/Pa-b, which represents the degree of efflux transport of the study drug.
# hEL cells = test: Cell viability (MTS) assay; format: cell-based, human; details: compound alone, 0-20 µM, 48 h
# Description: Caco2 and hEL cells were cultured in a 100 mm^2 cell culture dish with MEM containing 10% FBS at 37 °C in a humidified atmosphere of 5% CO2. […] The cells were subjected to further analysis or harvested to prepare cell-free extracts.
# A commercially available MTS assay kit was used, and cells were subjected to the standard protocol followed by measurement at 490 nm wavelength with a microplate reader.
# [6] = system: BPDE-DNA adducts in hEL cells; test: BPDE-DNA adduct formation (ELISA kit); format: cell-based, human; details: for BPDE-DNA adduct level: 10 µM B(a)P cotreatment with 10 µM G-Rg3, 48 h; for BPDE-DNA adducts: B(a)P and G-Rg3 cotreatment
# Description: After treatment for 48 h, DNA was extracted from hEL cells using the QIAamp DNA Mini Kit according to the manufacturer’s protocol. BPDE-DNA adduct formation was detected using the BPDE-DNA adduct ELISA kit. The relative BPDE-DNA adduct levels were measured using a microplate reader for absorbance at 450 nm.
# [7] = system: rat pulmonary epithelial cells; parameters: method as in PMID 17357179; details: in the presence of verapamil; cited from earlier work
# [8] = cited from earlier work
# [9] = verapamil 50 or 100 µM vs no verapamil
# [10] = 10 µM B(a)P cotreatment with 10 µM G-Rg3
# [11] = 10 µM B(a)P cotreatment with 10 µM G-Rg3, 48 h
smiles,measurement,setting,value
"c1ccc2c(c1)cc1ccc3cccc4ccc2c1c34 [B(a)P, benzo(a)pyrene, reference compound]",GST expression,"GST [1]; 10 µM B(a)P alone, G-Rg3r groups",59.7 ± 8.2%
same,GST expression,"GST [1]; 10 µM B(a)P alone, G-Rg3s groups",39 ± 4.5%
same,GST activity,"GST [2]; 10 µM B(a)P only, 48 h",35.7 ± 7.8%
same,level of Nrf2,"Nrf2; B(a)P only, G-Rg3r experiment",51.3 ± 6.8%
same,level of Nrf2,"Nrf2; B(a)P only, G-Rg3s experiment",41 ± 9.8%
CC(C)=CCC[C@](C)(O[C@@H]1O[C@H](CO)[C@@H](O)[C@H](O)[C@H]1O)[C@H]1CC[C@]2(C)[C@@H]1[C@H](O)C[C@@H]1[C@@]3(C)CC[C@H](O)C(C)(C)[C@@H]3CC[C@]12C [Compound K],intracellular levels spiked by a factor of,Caco-2 cells,40
"CC(C)=CCC[C@](C)(O)[C@H]1CC[C@]2(C)[C@@H]1[C@H](O)C[C@@H]1[C@@]3(C)CC[C@H](O[C@@H]4O[C@H](CO)[C@@H](O)[C@H](O)[C@H]4O[C@@H]4O[C@H](CO)[C@@H](O)[C@H](O)[C@H]4O)C(C)(C)[C@@H]3CC[C@]12C [G-Rg3, ginsenoside Rg3]",body weight loss or clinical signs of toxicity,[3],No significant body weight loss or clinical signs of toxicity
"CC(C)=CCCC(C)(O)C1CCC2(C)C1C(O)CC1C3(C)CCC(OC4OC(CO)C(O)C(O)C4OC4OC(CO)C(O)C(O)C4O)C(C)(C)C3CCC12C (stereo not shown) [G-Rg3r, ginsenoside Rg3]",tumor load,[4],0.75 ± 0.29 mm^3
same,concentration at 20 weeks,"[5]; intestine, oral, with verapamil coadministered (dose not stated), read-out: level in the intestine",1350 ± 130 ng/g
same,concentration at 20 weeks,"[5]; intestine, oral, read-out: level in the intestine",530 ± 80 ng/g
same,concentration at 20 weeks,"[5]; plasma, oral, with verapamil coadministered (dose not stated), read-out: plasma level",1170 ± 470 nM
same,concentration at 20 weeks,"[5]; plasma, oral, read-out: plasma level",440 ± 320 nM
same,Pa-b (apical to basolateral),"Caco-2 monolayer; 10 µM G-Rg3, 50 µmol/L verapamil",0.73 ± 0.06
same,Pa-b (apical to basolateral),"Caco-2 monolayer; 10 µM G-Rg3, 100 µmol/L verapamil",1.14 ± 0.09
same,Pa-b (apical to basolateral),"Caco-2 monolayer; 10 µM G-Rg3, no verapamil",0.38 ± 0.06
same,Pb-a compared with Pa-b,Caco-2 monolayer,significantly higher
same,average Pb-a after verapamil treatment,Caco-2 monolayer; [9],significant decrease
same,cytotoxicity on hEL cells,hEL cells,nontoxic
same,BPDE-DNA adduct level,[6],1.87 ± 0.33
same,BPDE-DNA adducts,[6]; control siRNA group,1.47 ± 0.21
same,BPDE-DNA adducts,[6]; siNrf2 group,3.0 ± 0.21
same,GST expression,GST [1]; [10],103.7 ± 15.5%
same,GST activity,GST [2]; [11],96.3 ± 6.6%
same,level of Nrf2,Nrf2; B(a)P-G-Rg3 cotreatment,106 ± 9.5%
"CC(C)=CCCC(C)(O)C1CCC2(C)C1C(O)CC1C3(C)CCC(OC4OC(CO)C(O)C(O)C4OC4OC(CO)C(O)C(O)C4O)C(C)(C)C3CCC12C (stereo not shown) [G-Rg3s, ginsenoside Rg3]",tumor load,[4],0.81 ± 0.30 mm^3
same,"plasma and intestine levels when verapamil was coadministered, in words",[5]; after 20-weeks treatment,followed a similar pattern
same,Pb-a compared with Pa-b,Caco-2 monolayer,significantly higher
same,average Pb-a after verapamil treatment,Caco-2 monolayer; [9],significant decrease
same,"transport (Pa-b) after verapamil treatment, in words",Caco-2 monolayer; [9],followed a similar pattern
same,cytotoxicity on hEL cells,hEL cells,nontoxic
same,BPDE-DNA adduct level,[6],1.93 ± 0.48
same,BPDE-DNA adducts,[6]; control siRNA group,1.8 ± 0.32
same,BPDE-DNA adducts,[6]; siNrf2 group,3.6 ± 0.45
same,GST expression,GST [1]; [10],110 ± 11.1%
same,GST activity,GST [2]; [11],92.3 ± 6.5%
same,level of Nrf2,Nrf2; B(a)P-G-Rg3 cotreatment,117 ± 6.2%
CC(C)=CCC[C@](C)(O[C@@H]1O[C@H](CO)[C@@H](O)[C@H](O)[C@H]1O)[C@H]1CC[C@]2(C)[C@@H]1[C@H](O)C[C@@H]1[C@@]3(C)CC[C@H](O)C(C)(C)[C@@H]3[C@@H](O[C@@H]3O[C@H](CO)[C@@H](O)[C@H](O)[C@H]3O)C[C@]12C [Rg1],levels in rat pulmonary epithelial cells,[7],increased
CC(C)=CC/C=C(\C)[C@H]1CC[C@]2(C)[C@@H]1[C@H](O)C[C@@H]1[C@@]3(C)CC[C@H](O[C@@H]4O[C@H](CO)[C@@H](O)[C@H](O)[C@H]4O[C@@H]4O[C@H](CO)[C@@H](O)[C@H](O)[C@H]4O)C(C)(C)[C@@H]3CC[C@]12C [Rg5],ginsenoside in the blood,"[5]; after 20-weeks KRGB treatment, oral",0.0063 ± 0.0005 µg/mL
CC(C)=CCC[C@](C)(O)[C@H]1CC[C@]2(C)[C@@H]1[C@H](O)C[C@@H]1[C@@]3(C)CC[C@H](O[C@@H]4O[C@H](CO)[C@@H](O)[C@H](O)[C@H]4O)C(C)(C)[C@@H]3CC[C@]12C [ginsenoside Rh2],bioavailability,"[8]; initial value, without cyclosporine A",1%
same,bioavailability,[8]; with cyclosporine A treatment,more than 30%
